Common to all, as to type: cell-based
For test [1], the system named is HTT mRNA alternative junction (AJ). Kind of test: RT-qPCR splicing assay, HTT alternative junction (AJ) mRNA increase. The conditions noted are these: A673 or K562 cell line, 24 hours treatment; concentration having 50% response in AJ mRNA increase. The procedure: (§1) Compounds described herein were used to modulate RNA transcript abundance in cells. The expression of a target mRNA was measured by detecting the formation of an exon-exon junction in the canonical transcript (CJ). A compound mediated exon-inclusion event was detected by observing an increase in formation of a new junction with an alternative exon (AJ). Real-time qPCR assays were used to detect these splicing switches and interrogate the potency of various compounds towards different target genes. A high-throughput real time quantitative PCR (RT-qPCR) assay was developed to measure these two isoforms of the mRNA (CJ and AJ) for an exemplary gene, HTT, together with a control housekeeping gene, GAPDH or GUSB or PPIA, used for normalization. Briefly, the A673 or K562 cell line was treated with various compounds described herein (e.g., compounds of Formula (I)). After treatment, the levels of the HTT mRNA targets were determined from each sample of cell lysate by cDNA synthesis followed by qPCR.
(§2) The A673 cell line was cultured in DMEM with 10% FBS. Cells were diluted with full growth media and plated in a 96-well plate (15,000 cells in 100 ul media per well). The plate was incubated at 37° C. with 5% CO2 for 24 hours to allow cells to adhere. An 11-point 3-fold serial dilution of the compounds was made in DMSO then diluted in media in an intermediate plate. Compounds were transferred from the intermediate plate to the cell plate with the top dose at a final concentration of 10 uM in the well. Final DMSO concentration was kept at or below 0.25%. The cell plate was returned to the incubator at 37° C. with 5% CO2 for an additional 24 hours.
(§3) The K562 cell line was cultured in IMDM with 10% FBS. For K562, cells were diluted with full growth media and plated in either a 96-well plate (50,000 cells in 50 uL media per well) or a 384-well plate (8,000-40,000 cells in 45 uL media per well). An 11-point 3-fold serial dilution of the compounds were made in DMSO then diluted in media in an intermediate plate. Compound was transferred from the intermediate plate to the cell plate with the top dose at a final concentration of 10 uM in the well. Final DMSO concentration was kept at or below 0.25%. Final volume was 100 uL for 96-well plate and 50 uL for 384-well plate. The cell plate was then placed in an incubator at 37° C. with 5% CO2 for 24 hours.
(§4) The cells were then gently washed with 50 uL-100 uL cold PBS before proceeding to addition of lysis buffer. 30 uL-50 uL of room temperature lysis buffer with DNAse I (and optionally RNAsin) was added to each well. Cells were shaken/mixed thoroughly at room temperature for 5-10 minutes for lysis to take place and then 3 uL-5 uL of room temperature stop solution was added and wells were shaken/mixed again. After 2-5 minutes, the cell lysate plate was transferred to ice for RT-qPCR reaction setup. The lysates could also be frozen at −80° C. for later use.
(§5) In some cases, a direct lysis buffer was used. An appropriate volume of 3×lysis buffer (10 mM Tris, 150 mM NaCl, 1.5%-2.5% Igepal and 0.1-1 U/uL RNAsin, pH 7.4) was directly added to either K562 or A673 cells in media and mixed by pipetting 3 times. The plates were then incubated at room temperature with shaking/rocking for 20-50 minutes to allow for lysis to take place. After this time, the cell lysate plate was transferred to ice to set up for the RT-qPCR reactions. The lysates could also be frozen at −80° C. for later use.
(§6) To set up 10 uL RT-qPCR reactions, cell lysates were transferred to 384-well qPCR plates containing the master mix according to the table below. The plates were sealed, gently vortexed, and spun down before the run. The volumes were adjusted accordingly in some instances where the reaction was carried in 20 uL. The table below summarizes the components of the RT-qPCR reactions:
(§7) The RT-qPCR reaction was performed using a QuantStudio (ThermoFisher) under the following fast cycling conditions. […]
Background: Real-time PCR tracks product formation cycle by cycle.

Test [2] relates to HTT mRNA canonical junction (CJ). As to the kind of experiment: RT-qPCR splicing assay, HTT canonical junction (CJ) mRNA decrease. The conditions noted are these: A673 or K562 cell line, 24 hours treatment; concentration having 50% response in CJ mRNA decrease. The procedure:
as §1, §2, §3, §4, §5, §6, §7

The subject of the next test is HTT CJ mRNA. As to the kind of experiment: Gene panel canonical junction qPCR assay, HTT. The conditions noted are these: larger gene panel; concentration having 50% response in CJ decrease; read-out: HTT IC50 (decrease in CJ mRNA levels). As to the method:
as §1
(§8) The data analysis was performed by first determining the ΔCt vs the housekeeper gene. This ΔCt was then normalized against the DMSO control (ΔΔCt) and converted to RQ (relative quantification) using the 2^(−ΔΔCt) equation. The RQ were then converted to a percentage response by arbitrarily setting an assay window of 3.5 ΔCt for HTT-CJ and an assay window of 9 ΔCt for HTT-AJ. […] The percentage response was then fitted to the 4 parametric logistic equation to evaluate the concentration dependence of compound treatment. The increase in AJ mRNA is reported as AC50 (compound concentration having 50% response in AJ increase) while the decrease in CJ mRNA levels is reported as IC50 (compound concentration having 50% response in CJ decrease).
(§9) Additional studies were carried out for a larger panel of genes using the protocol provided above. The junction between flanking upstream and downstream exons was used to design canonical junction qPCR assays. At least one of the forward primer, reverse primer or the CY5-labeled 5′ nuclease probe (with 3′ quencher such as ZEN/Iowa Black FQ) was designed to overlap with the exon junction to capture the CJ mRNA transcript. BLAST was used to confirm the specificity of the probeset and parameters such as melting temperature, GC content, amplicon size, and primer dimer formation are considered during their design. Data for the decrease in CJ mRNA levels for three exemplary genes (HTT, SMN2, and Target C) analyzed in this panel are reported as IC50 (compound concentration having 50% response in CJ decrease).

The subject of the next test is SMN2 CJ mRNA. Kind of test: Gene panel canonical junction qPCR assay, SMN2. The conditions noted are these: larger gene panel; concentration having 50% response in CJ decrease; read-out: SMN2 IC50 (decrease in CJ mRNA levels). The procedure: as §1, §8, §9
A further test relates to Target C CJ mRNA. Kind of test: Gene panel canonical junction qPCR assay, Target C. The conditions noted are these: larger gene panel; concentration having 50% response in CJ decrease; read-out: Target C IC50 (decrease in CJ mRNA levels). As to the method: as §1, §8, §9

One may read the AC50 as the concentration giving half of the maximal activity seen. A higher AC50 goes with activity only at high concentration. Consider `Cc1cn2cc(NC(=O)c3cccc4c(N5CCC(NC(C)(C)C)C5)cnnc34)cc(F)c2n1` (stereo not shown) [Compound 122, 4-[3-(tert-butylamino)pyrrolidin-1-yl]-N-[8-fluoro-2-methylimidazo[1,2-a]pyridin-6-yl]cinnoline-8-carboxamide], for which the half-maximal activity concentration (AC50) in test [1] and in test [2] was greater than 10 µM throughout.
For `Cc1cn2nc(-c3cccc4c(C5CCNCC5)nncc34)cc(C)c2n1` [Compound 104, 5-[2,8-dimethylimidazo[1,2-b]pyridazin-6-yl]-1-(piperidin-4-yl)phthalazine], in test [1], the AC50 was greater than 10 µM.
In general, IC50 refers to the concentration at which inhibition is half-maximal. In the case of `c1cc(-c2cn[nH]c2)c2cnnc(N3CCNCC3)c2c1` [Compound 102, 1-(piperazin-1-yl)-5-(1H-pyrazol-4-yl)phthalazine], the AC50 in test [1] and in test [2] was greater than 10 µM each time. In addition, the IC50 in the test with HTT CJ mRNA and in the test on SMN2 CJ mRNA was greater than 10 µM each time.
For `Cc1cn2cc(NC(=O)c3cccc4c(C5CCNCC5)cnnc34)cc(F)c2n1` [Compound 114, N-[8-fluoro-2-methylimidazo[1,2-a]pyridin-6-yl]-4-(piperidin-4-yl)cinnoline-8-carboxamide], the half-maximal activity concentration (AC50) in test [1] and in test [2] was greater than 10 µM in each case.
Turning to `COc1cc(N2CCNCC2)c2cccc(-c3cc(C)c4nc(C)cn4n3)c2n1` [Compound 134, 8-[2,8-dimethylimidazo[1,2-b]pyridazin-6-yl]-2-methoxy-4-(piperazin-1-yl) quinoline], the half-maximal activity concentration (AC50) in test [1] and in test [2] was 1 to 10 µM throughout. Moreover, the IC50 in the test with Target C CJ mRNA lay in the range of 1 to 10 µM.
Regarding `Cc1cn2cc(-c3cccc4c(N5CCNCC5)nncc34)nc2c(C)n1` [Compound 100, 5-[6,8-dimethylimidazo[1,2-a]pyrazin-2-yl]-1-(piperazin-1-yl)phthalazine], the concentration at half-maximal activity (AC50) in test [1] and in test [2] was greater than 10 µM each time.
`Cc1cn2nc(NC(=O)c3cccc4c(C5CCNCC5)cnnc34)cc(C)c2n1` [Compound 112, N-[2,8-dimethylimidazo[1,2-b]pyridazin-6-yl]-4-(piperidin-4-yl)cinnoline-8-carboxamide]: the AC50 in test [1] and in test [2] was greater than 10 µM each time. Further, the half-inhibitory concentration (IC50) with Target C CJ mRNA fell in the range of 1 to 10 µM.
For `Cc1cn2nc(-c3cccc4c(N5CCNCC5)nncc34)cc(C)c2n1` [Compound 101, 5-[2,8-dimethylimidazo[1,2-b]pyridazin-6-yl]-1-(piperazin-1-yl)phthalazine], the AC50 in test [1] was 1 to 10 µM; in test [2] it was greater than 10 µM. In addition, the half-inhibitory concentration (IC50) in the test with Target C CJ mRNA lay within 1 to 10 µM.
Turning to `Cc1cn2cc(-c3cccc4c(C5=CCNCC5)nncc34)nc2c(C)n1` [Compound 109, 5-[6,8-dimethylimidazo[1,2-a]pyrazin-2-yl]-1-(1,2,3,6-tetrahydropyridin-4-yl)phthalazine], the AC50 in test [1] and in test [2] was greater than 10 µM each time. Besides, the IC50 in the test on Target C CJ mRNA was in the range of 1 to 10 µM.
With `Cc1cn2nc(-c3cccc4c3CCC(=O)N4C3CCNCC3)cc(C)c2n1` [Compound 185], the AC50 was greater than 10 µM in test [1] and 1 to 10 µM in test [2]. Besides, the values for the 50% inhibitory concentration (IC50) in the test on HTT CJ mRNA and in the test with SMN2 CJ mRNA were 1 to 10 µM and greater than 10 µM, respectively.
As for `Cc1cn2nc(NC(=O)c3cccc4c(N5CCNCC5)cnnc34)cc(C)c2n1` [Compound 111, N-[2,8-dimethylimidazo[1,2-b]pyridazin-6-yl]-4-(piperazin-1-yl)cinnoline-8-carboxamide], the AC50 in test [1] and in test [2] was greater than 10 µM in each case.
In the case of `COc1cc(N2CCNCC2)c2cccc(-c3cc(F)c4nc(C)cn4c3)c2n1` [Compound 138, 8-[8-fluoro-2-methylimidazo[1,2-a]pyridin-6-yl]-2-methoxy-4-(piperazin-1-yl) quinoline], the half-maximal activity concentration (AC50) in test [1] and in test [2] was greater than 10 µM each time. The IC50 with HTT CJ mRNA was greater than 10 µM; in the test on SMN2 CJ mRNA, 0.1 to 1 µM; in the test with Target C CJ mRNA, greater than 10 µM.
Take `Cc1cn2cc(-c3cccc4c(N5CCCCC5)nncc34)nc2c(C)n1` [Compound 108, 5-[6,8-dimethylimidazo[1,2-a]pyrazin-2-yl]-1-(piperidin-1-yl)phthalazine]: the AC50 in test [1] and in test [2] was greater than 10 µM each time. Also, the IC50 with Target C CJ mRNA lay within 1 to 10 µM.
For the compound `Cc1cn2cc(NC(=O)c3cccc4c(N(C)C5CCN(C)CC5)cnnc34)cc(F)c2n1` [Compound 213], the half-maximal activity concentration (AC50) in test [1] and in test [2] was 1 to 10 µM in each case. Also, the IC50 in the test with HTT CJ mRNA, with SMN2 CJ mRNA and in the test on Target C CJ mRNA was 1 to 10 µM in each case.
In the case of `Cc1cn2cc(NC(=O)c3cccc4c(N(C)C5CC(C)(C)NC(C)(C)C5)cnnc34)cc(F)c2n1` [Compound 184, N-[8-fluoro-2-methylimidazo[1,2-a]pyridin-6-yl]-4-[methyl(2,2,6,6-tetramethylpiperidin-4-yl)amino]cinnoline-8-carboxamide], the AC50 in test [1] and in test [2] was 1 to 10 µM in each case. In addition, the concentration for half-maximal inhibition (IC50) in the test with HTT CJ mRNA, in the test on SMN2 CJ mRNA and in the test on Target C CJ mRNA was 1 to 10 µM each time.
Regarding `Cc1cn2cc(NC(=O)c3cccc4c(N5CCNCC5)cnnc34)cc(F)c2n1` [Compound 113, N-[8-fluoro-2-methylimidazo[1,2-a]pyridin-6-yl]-4-(piperazin-1-yl)cinnoline-8-carboxamide], the half-maximal activity concentration (AC50) in test [1] was 1 to 10 µM; in test [2], greater than 10 µM. The half-inhibitory concentration (IC50) in the test with HTT CJ mRNA was greater than 10 µM; in the test with SMN2 CJ mRNA, less than 0.1 µM; in the test with Target C CJ mRNA it was less than 0.1 µM.

For the origin of these results see patent US20240190879A1, “FUSED BICYCLIC COMPOUNDS USEFUL FOR MODULATING NUCLEIC ACID SPLICING” (REMIX THERAPEUTICS INC., priority 2020, published 2024).
